Measurements: patent US4393076A, “Anti-inflammatory and analgesic gel composition” (priority 1980, dated 1983)

Legend:
gastric mucous membrane = assay: Gastric mucous membrane troubles in rats (ulceration); type: in vivo, rats (Wister strain, male); conditions: oral, 1 mg/Kg, 6 hours
Experimental: Anti-inflammatory activity on gastric mucous membrane troubles in rats
Male rats of Wister strain, each weighing about 200 g, were fasted except for unlimited feeding of water for a time period of 24 hours, after which each of the test compounds shown in Table 4 was administered to the rats so fasted. […] Six hours after said administration, the test animals were slaughtered to remove their stomachs which were incised along the greater curvature thereof to visually observe whether or not an ulcer was formed at the gastric mucous membrane of their stomachs. The ulceration ratio (%) was calculated from the following equation: [formula]

[1] = for Stability: indomethacin: to alkalies, ketoprofen and flurbiprofen: to the gel base
[2] = orally administered; cited from earlier work

COc1ccc2c(c1)c(CC(=O)O)c(C)n2C(=O)c1ccc(Cl)cc1 [Indomethacin powder]
Ulceration ratio (gastric mucous membrane): 100.0%
Ulceration ratio (gastric mucous membrane; listed as indomethacin powder): 100%

CC(C(=O)O)c1ccc(-c2ccccc2)c(F)c1 (centres unmarked) [flurbiprofen]
Solubility in the gel base ([1]; in words): excellent
Stability [1]: excellent in stability

COc1ccc2c(c1)c(CC(=O)O)c(C)n2C(=O)c1ccc(Cl)cc1 [indomethacin]
Crystallization ([1]; gel base, in words): apt to crystallize out
Solubility in the gel base ([1]; in words): inferior in solubility in the gel base
Stability [1]: unstable to alkalies
Medicinal efficacy compared with the effective ingredient of the composition of this invention [2]: equal or slightly superior in medicinal efficacy
